Experimental findings from US10106542B2, “Substituted 6,7-dihydropyrazolo[1,5-a]pyrazines as negative allosteric modulators of mGluR2 receptors” (Janssen Pharmaceutica NV, priority 2013, dated 2018) are described below.

As a reminder, the Emax is the maximal effect, on the per cent scale that the assay sets. In general, melting point refers to the temperature of the solid-liquid transition.

For series [1], the target named is T1, human mGlu2 receptor (Homo sapiens, UniProt Q14416).
T1 construct: expressed in transfected cells; host or cells: CHO cells (membrane preparation)
The series can be described thus: [35S]GTPγS binding assay (mGluR2 negative allosteric modulation). The class given is biochemical. The following applies: for IC50: membranes from CHO cells transfected with human mGlu2 receptor, glutamate 60 μM, pIC50 = −log IC50 (M), read-out: GTPγS - hmGluR2 anGT pIC50 (converted); for Emax: read-out: GTPγS - hmGluR2 anGT Emax. In short, it runs like this:
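Negative allosteric modulation read as [35S]GTPγS (0.1 nM) incorporation over 30 min at 30 °C, expressed as % of the response to an EC80-equivalent glutamate concentration. Assay used 7 μg human mGlu2 CHO membrane protein in HEPES pH 7.4 buffer with NaCl, MgCl2, GDP and saponin; bound label collected by filtration.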

The mark [2] stands for this setting: relative maximal effect: maximal % inhibition relative to the control glutamate response.

T1 sequence (Q14416 19-872): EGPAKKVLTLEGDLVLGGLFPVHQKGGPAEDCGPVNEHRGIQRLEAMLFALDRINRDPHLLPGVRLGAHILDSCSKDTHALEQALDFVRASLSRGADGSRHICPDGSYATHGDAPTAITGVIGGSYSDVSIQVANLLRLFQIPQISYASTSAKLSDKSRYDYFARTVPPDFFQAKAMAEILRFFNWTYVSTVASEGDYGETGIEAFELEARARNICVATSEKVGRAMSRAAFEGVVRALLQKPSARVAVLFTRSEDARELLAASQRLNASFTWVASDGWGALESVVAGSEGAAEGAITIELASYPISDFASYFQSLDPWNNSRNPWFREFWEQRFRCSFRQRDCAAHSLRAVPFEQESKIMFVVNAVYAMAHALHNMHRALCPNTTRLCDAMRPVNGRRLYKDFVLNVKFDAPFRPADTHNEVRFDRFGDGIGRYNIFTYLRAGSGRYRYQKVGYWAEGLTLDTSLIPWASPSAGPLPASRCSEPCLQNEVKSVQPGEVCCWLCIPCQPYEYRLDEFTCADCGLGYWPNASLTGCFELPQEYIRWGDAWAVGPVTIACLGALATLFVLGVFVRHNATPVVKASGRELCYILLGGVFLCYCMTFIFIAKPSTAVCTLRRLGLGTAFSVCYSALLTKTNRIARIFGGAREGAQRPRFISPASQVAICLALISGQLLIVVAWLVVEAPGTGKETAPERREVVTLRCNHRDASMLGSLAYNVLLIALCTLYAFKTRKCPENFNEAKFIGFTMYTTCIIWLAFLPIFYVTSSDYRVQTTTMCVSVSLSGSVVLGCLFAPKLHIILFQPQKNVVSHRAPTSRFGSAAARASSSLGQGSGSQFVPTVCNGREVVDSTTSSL

`Cc1cc(-c2cnn3c2C(=O)N(c2ccc(S(F)(F)(F)(F)F)cc2)C[C@@H]3C)cc(C)n1` [compound 53] had a melting point of 233.1 °C. Besides, the IC50 in series [1] is 9.77e-09 M. Besides, the maximal effect (Emax) in series [1] (setting [2]) was 102%.
Compound `CC[C@H]1CN(c2ccc(C(F)(F)F)cc2)C(=O)c2c(-c3ccnc(C)c3)cnn21` [compound 130] registered a melting point of 134.4 °C. Moreover, in series [1], the IC50 was 1.7e-08 M. For the same compound, the maximal effect (Emax) in series [1] (setting [2]) amounted to 102%.
Compound `Cc1cc(-c2cnn3c2C(=O)N(c2ccc(OCCF)c(C(F)(F)F)c2)C[C@@H]3C)ccn1` [compound 77, (7S)-5-[4-(2-Fluoroethoxy)-3-(trifluoromethyl)phenyl]-7-methyl-3-(2-methyl-4-pyridyl)-6,7-dihydropyrazolo[1,5-a]pyrazin-4-one] registered a melting point of 60.8 °C. Moreover, the IC50 in series [1] is 3.89e-07 M. Moreover, in series [1] (setting [2]), the maximum response (Emax) was determined as 101%.
With `Cc1cc(-c2cnn3c2C(=O)N(c2ccc(C(F)(F)F)c(C)c2)C[C@@H]3C)cc(C)n1` [compound 157], the melting point worked out at 158.9 °C. The IC50 in series [1] was 8.71e-09 M. Moreover, in series [1] (setting [2]), the Emax came out at 104%.
`C[C@H]1CN(c2ccc(C(F)(F)F)c(Cl)c2)C(=O)c2c(-c3ccncc3)cnn21` [compound 50] yielded a melting point of 146.8 °C. For the same compound, the IC50 in series [1] is 9.55e-09 M. For the same compound, in series [1] (setting [2]), the Emax turned out to be 103%.
On the same counts, the results for `C[C@H]1CN(c2ccc(Cl)cc2)C(=O)c2c(-c3ccncc3)cnn21` [compound 73] are 144.3 °C, 1.29e-07 M and 102%.
On the same counts, the results for `Cc1cc(-c2cnn3c2C(=O)N(c2ccc(Cl)cc2)C[C@@H]3C)cc(C)n1` [compound 72] are 88 °C, 1.07e-07 M and 103%.
As to `CCOc1nc(N2C[C@H](C)n3ncc(-c4cc(C)nc(C)c4)c3C2=O)ccc1C(F)(F)F` [compound 205], the melting point was found to be 179.2 °C. For the same compound, the IC50 in series [1] was 1.02e-08 M. Also, the maximal effect (Emax) in series [1] (setting [2]) worked out at 102%.
In turn, `Cc1cc(N2C[C@H](C)n3ncc(-c4ccnc(NC(C)C)c4)c3C2=O)ccc1C(F)(F)F` [compound 267] displayed a melting point of 131.3 °C. In addition, the IC50 in series [1] is 2.24e-08 M. Further, the Emax in series [1] (setting [2]) stood at 107%.
Regarding `C[C@H]1CN(c2ccc(Cl)c(Cl)c2)C(=O)c2c(-c3ccnc(CO)c3)cnn21` [compound 125, (7S)-5-(3,4-Dichlorophenyl)-3-[2-(hydroxymethyl)-4-pyridyl]-7-methyl-6,7-dihydropyrazolo[1,5-a]pyrazin-4-one], the melting point worked out at 105.4 °C. Moreover, the IC50 in series [1] is 1.78e-07 M. In addition, in series [1] (setting [2]), the Emax stood at 105%.
On the same counts, the results for `Cc1cc(-c2cnn3c2C(=O)N(c2ccc(OC(F)F)c(Cl)c2)C[C@@H]3C)ccn1` [compound 168] are 108.5 °C, 2.51e-08 M and 106%.
Take `Cc1cc(-c2cnn3c2C(=O)N(c2cc(Cl)c(C(F)(F)F)cn2)C[C@@H]3C)ccn1` [compound 204, (7S)-5-[4-Chloro-5-(trifluoromethyl)-2-pyridyl]-7-methyl-3-(2-methyl-4-pyridyl)-6,7-dihydropyrazolo[1,5-a]pyrazin-4-one]: the melting point was determined as 292.8 °C. Moreover, the IC50 in series [1] was 4.9e-09 M. Also, the Emax in series [1] (setting [2]) was determined as 107%.
On to `CN(C)c1cc(-c2cnn3c2C(=O)N(c2ccc(Cl)c(Cl)c2)CC3CF)ccn1` (single isomer, unassigned) [compound 91], for which the melting point came out at 86 °C. The IC50 in series [1] is 5.62e-08 M. Further, the “GTPγS - hmGluR2 anGT Emax” value in series [1] (setting [2]) came out at 103%.
`COc1cc(N2C[C@H](C)n3ncc(-c4ccnc(C)c4)c3C2=O)cc(F)c1F` [compound 84] gave a melting point of 101.2 °C. Further, the IC50 in series [1] was 8.13e-07 M. The Emax in series [1] (setting [2]) turned out to be 104%.
In turn, `Cc1cc(N2C[C@H](C)n3ncc(-c4ccncc4)c3C2=O)ccc1C(F)(F)F` [compound 153] displayed a melting point of 162 °C. Further, the IC50 in series [1] is 1.45e-08 M. For the same compound, the Emax in series [1] (setting [2]) amounted to 103%.
The compound `COc1cc(N2C[C@H](C)n3ncc(-c4ccncc4)c3C2=O)ccc1C(F)(F)F` [compound 64] returned a melting point of 273.9 °C. For the same compound, the IC50 in series [1] was 2.63e-08 M. Besides, the Emax in series [1] (setting [2]) was 103%.
The compound `C[C@H]1CN(c2ccc(C(F)(F)F)cc2)C(=O)c2c(-c3ccnc(C(F)F)c3)cnn21` [compound 131] had a melting point of 134.7 °C. In addition, in series [1], the IC50 is 2.45e-08 M. Besides, the Emax in series [1] (setting [2]) is 105%.
As to `CCOc1nc(N2C[C@H](C)n3ncc(-c4ccnc(C)c4)c3C2=O)ccc1C(F)(F)F` [compound 189, (7S)-5-[6-Ethoxy-5-(trifluoromethyl)-2-pyridyl]-7-methyl-3-(2-methyl-4-pyridyl)-6,7-dihydropyrazolo[1,5-a]pyrazin-4-one], the melting point was 142.4 °C. Moreover, the IC50 in series [1] is 4.07e-08 M. The Emax in series [1] (setting [2]) came to 102%.
`Cc1cc(-c2cnn3c2C(=O)N(c2ccc(F)c(C)c2)C[C@@H]3C)ccn1` [compound 21] had a melting point of 219.2 °C. In addition, the IC50 in series [1] was 6.17e-08 M. For the same compound, the maximal effect (Emax) in series [1] (setting [2]) amounted to 107%.
In the case of `COc1cc(-c2cnn3c2C(=O)N(c2ccc(C(F)(F)F)c(OC)n2)C[C@@H]3C)ccn1` [compound 240], the melting point is 107.87 °C (dec.). Also, the IC50 in series [1] is 6.76e-09 M. The Emax in series [1] (setting [2]) was found to be 109%.
As for `CNc1cc(-c2cnn3c2C(=O)N(c2ccc(C(F)(F)F)cn2)C[C@@H]3C)ccn1` [compound 210], the melting point was 125.66 °C (dec.). The IC50 in series [1] was 2.34e-08 M. In addition, the Emax in series [1] (setting [2]) stood at 105%.
With `Cc1cc(-c2cnn3c2C(=O)N(c2ccc(C(F)F)c(Cl)c2)C[C@@H]3C)ccn1` [compound 174], the melting point is 127.5 °C. Moreover, the IC50 in series [1] is 1e-08 M. Also, the Emax in series [1] (setting [2]) came out at 105%.
With `CCOc1ccc(N2C[C@H](C)n3ncc(-c4ccnc(C)c4)c3C2=O)nc1F` [compound 191], the melting point was 60.7 °C. For the same compound, the IC50 in series [1] was 1.07e-06 M. In addition, the Emax in series [1] (setting [2]) is 109%.
On the same counts, the results for `CC(C)c1cc(-c2cnn3c2C(=O)N(c2ccc(C(F)(F)F)cc2)C[C@@H]3C)ccn1` [compound 126, (7S)-3-(2-Isopropyl-4-pyridyl)-7-methyl-5-[4-(trifluoromethyl)phenyl]-6,7-dihydropyrazolo[1,5-a]pyrazin-4-one] are 70.5 °C, 5.75e-09 M and 108%.
With `Cc1cc(-c2cnn3c2C(=O)N(c2ccc(Cl)c(F)c2)C[C@@H]3C)ccn1` [compound 62], the melting point came out at 141.7 °C. In series [1], the IC50 was 3.31e-08 M. Also, the Emax in series [1] (setting [2]) is 105%.
On the same counts, the results for `COCC1CN(c2ccc(Cl)c(Cl)c2)C(=O)c2c(-c3ccnc(C)c3)cnn21` (stereo not drawn) [compound 143] are above 300 °C, 2.45e-08 M and 104%.
The compound `COCc1cc(N2C[C@H](C)n3ncc(-c4ccnc(C)c4)c3C2=O)ccc1C(F)(F)F` [compound 158] yielded a melting point of 48.2 °C. Besides, the IC50 in series [1] was 2.51e-08 M. Besides, the Emax in series [1] (setting [2]) was found to be 106%.
Compound `CCOc1cc(N2CC(CO)n3ncc(-c4ccnc(C)c4)c3C2=O)ccc1C(F)(F)F` (stereo not drawn) [compound 74] yielded a melting point of 99.1 °C. Moreover, the IC50 in series [1] was 2.14e-07 M. The Emax in series [1] (setting [2]) was determined as 100%.
With `C[C@H]1CN(c2ccc(C(F)(F)F)cc2)C(=O)c2c(-c3ccnc(N4CCOCC4)c3)cnn21` [compound 108], the melting point worked out at 128.1 °C. Further, the IC50 in series [1] was 1.23e-07 M. Moreover, the Emax in series [1] (setting [2]) turned out to be 108%.
In the case of `CC(=O)N1CC(c2ccc(-c3cnn4c3C(=O)N(c3ccc(C(F)(F)F)cc3)C[C@@H]4C)cn2)C1` [compound 235], the melting point worked out at 93 °C. The IC50 in series [1] was 1.26e-06 M. The Emax in series [1] (setting [2]) worked out at 102%.
Turning to `C[C@H]1CN(c2ccc(Cl)c(Cl)c2)C(=O)c2c(-c3ccnc(F)c3)cnn21` [compound 164], the melting point stood at 170.3 °C. The IC50 in series [1] is 5.5e-09 M. Further, the Emax in series [1] (setting [2]) worked out at 107%.
`COc1cc(-c2cnn3c2C(=O)N(c2ccc(C(F)(F)F)c(C#N)c2)C[C@@H]3C)ccn1` [compound 88]: the melting point was 157.75 °C (dec.). Also, the IC50 in series [1] is 4.07e-08 M. In addition, in series [1] (setting [2]), the Emax came to 102%.
Consider `Cc1cc(-c2cnn3c2C(=O)N(c2ccc(C(F)(F)F)cc2)CC3(C)C)ccn1` [compound 171], for which the melting point was found to be 158.8 °C. For the same compound, the IC50 in series [1] is 1.7e-05 M. In series [1] (setting [2]), the maximal effect (Emax) came to 94%.
Turning to `COc1cc(F)cc(N2C[C@H](C)n3ncc(-c4ccnc(C)c4)c3C2=O)c1` [compound 85], the melting point was 133 °C. In addition, the IC50 in series [1] is 9.55e-07 M. The maximal response (Emax) in series [1] (setting [2]) turned out to be 101%.
In the same order, the values of `Cc1cc(-c2cnn3c2C(=O)N(c2ccc(C(F)(F)F)c(F)c2)CC3)ccn1` [compound 39] are 185.2 °C, 1.62e-06 M and 100%.
On the same counts, the results for `C[C@H]1CN(c2ccc(C(F)(F)F)cc2)C(=O)c2c(-c3ccnc(CF)c3)cnn21` [compound 112] are 154.9 °C, 3.55e-08 M and 103%.
In turn, `Cc1cc(-c2cnn3c2C(=O)N(c2ccc(Cl)c(C)c2)C[C@@H]3C)ccn1` [compound 7] gave a melting point of 126.7 °C. The IC50 in series [1] was 7.59e-09 M. Further, in series [1] (setting [2]), the Emax was determined as 102%.
